Columns and labels:
ICR mice [1] = experiment: BUN and MDA in blood and MDA in renal tissue, alloxan-treated mice; assay type: in vivo; conditions: alloxan 75 mg/kg i.v. + decursin 50 mg/kg orally for 10 days
Experimental: (§1) 2 days after ICR mice were given alloxan (75 mg/kg, i.v.), their glucose levels at fasting were measured to select high-glucose mice. The high-glucose mice were divided into two groups; physiological saline solution was given to one group, while decursin was orally administered to the other group at a dose of 50 mg/kg for 10 days. The alloxan-free group was also orally given physiological saline solution for 10 days. The body weighs were checked periodically, together with urinary tests. To isolate their sera and kidney, mice were slightly anesthetized with ether and their abdomens were dissected. The blood samples were collected from heart to isolate the sera. The kidney was perfused with 0.9% NaCl and isolated after removal of the blood. Then the weight of right kidney was measured. Further, to measure the protein amount from the kidney tissues, these tissues were assayed according to the Bradford method using Bio-Rad protein assay kit in the presence of bovine serum albumin as a reference standard. To measure the MDA in the kidney tissues, 0.4 ml of 10% sodium dodecylsulfate was added to 0.5 ml of 10% kidney-tissue homogenization solution and left in water bath at 37° C. for 30 minutes; With the subsequent addition of 0.1N-HCl (2 ml) and 0.67% TBA (1 ml), the mixture was voltexed and left in boiling water bath for 30 minutes. The mixture was further cooled in ice bath for 2˜3 minutes to stop the reaction. Then 2 ml of n-butanol was added to the mixture, stirred well and centrifuged at 3000 rpm for 10 minutes. The supernatant was collected to measure the absorbance at 532 nm. 10 μg/ml tetraethoxypropane (TEP) was employed as a reference standard. To measure the MDA in sera, 0.8% thiobarbituric acid (TBA) was added to 0.5 ml of sera and left in boiling water bath for 30 minutes. The mixture was further cooled in ice bath for 2˜3 minutes to stop the reaction. The supernatant was collected to measure the absorbance at 532 nm. 10 μg/ml TEP was employed as a reference standard.
Mice were orally given decursin at a dose of 50 mg/kg for 10 days continuously. Then various parameters such as BUN and MDA in the blood as a marker of renal failure were measured, together with urinary test. When […] (table 4), the BUN value of single alloxan-treated group, 17.4±3.7 mg/dl was recovered to the normal level (4.8±0.6 mg/dl) by the treatment of decursin. The MDA value of single alloxan-treated group, 0.51±0.07, was reduced to 0.36±0.03 by the treatment of decursin, which was similar to a normal control group. Thus it was noted that the damage in the kidney was completely recovered. Since the reduction of both MDA values in the blood and kidney tissues may be clinically reasonable and desirable, the MDA value in the kidney tissues was measured. As a result, the MDA value in the kidney tissues of a single alloxan-treated group, 13.24±5.93, was reduced to 5.63±0.99 by the treatment of decursin, which was lower than that of normal control group (8.44±1.01).

ICR mice [2] = experiment: Urinary test, alloxan-treated mice; assay type: in vivo; conditions: Alloxan + decursin group (50 mg/kg orally, 10 days)
Experimental: as §1

U-937 cells [3] = experiment: Growth inhibition test (trypan blue exclusion); assay type: cell-based, human
Experimental: U-937 cells, optioned from Korea Cell Line Bank, was cultured in RPMI 1640 medium (Sigma Co., R-6504) supplemented with 10% fetal bovine serum (FBS). The medium was exchanged every 5 day by 70%. U-937 cells were inoculated into a cell culture dish at concentration of 2×10^5 cells/ml. Then decursin added into the dish at concentration of 10^−8˜10^−6M, then the cells were cultured for 4 days. Trypan blue exclusion test was performed to determine the number of live cells using a hemacytometer, and the percentage of cancer-cell growth inhibition was calculated. Then, the differentiation was induced by treating with 10^−2M diluted ethanol solution containing various amount of decursin in the medium.

[4] = system: cell lines of uterine cancer, leukemia, hepatoma or large intestine cancer; conditions: cited from earlier work
U-937 cells [5] = experiment: Esterase activity test: naphthol AS-D chloroacetate esterase; assay type: cell-based, human; conditions: percentage of cells showing activity
Experimental: To determine naphthol AS-D chloroacetate esterase activity, the cultured solution of U-937 cells was pelleted by centrifugation at 2000 rpm for 5 minutes, followed by the addition of 100 μl PBS to prepare a cell-concentrated solution. A drop of the cell solution was put on a slide glass and dried for more than 1 hour. Then 40 ml of deionized water was preheated at 37° C. 1 ml of […] solution was mixed with 1 ml of Fast Red Violet LB base solution and left for 2 minutes. The mixture was added to 40 ml of preheated deionized water. After the addition of 5 ml of TRIZMAL TM 6.3) buffer solution (Sigma Co. T-3128) and 1 ml of naphthol AS-D chloroacetate solution, the resulting solution, which was turned to red color was poured on a petri dish. The cells on a slide glass were fixed with citrate-acetone-formaldehyde solution, (CAF solution) at room temperature. The cells were soaked in the previously prepared solution and incubated at 37° C. for 30 minutes at a dark place. The cells were completely washed with deionized water for more than 2 minutes and counterstained with hematoxylin solution for 2 minutes, washed with tap water and dried in the air. After completely dried, the cells were observed under a microscope to calculate the reddish cell numbers by percentage.
Thus it was considered that the cells were differentiated into macrophage.like cells by the action of decursin.

**Q.** Which BUN (ICR mice [1]) does the source give for `CC(C)=CC(=O)O[C@H]1Cc2cc3ccc(=O)oc3cc2OC1(C)C` [decursin] here?
**A.** Its BUN is 4.8 ± 0.6 mg/dL.

**Q.** And the MDA in blood (ICR mice [1])?
**A.** Its MDA in blood is 0.36 ± 0.03 µg/mL.

**Q.** And the “MDA in renal tissue” value (ICR mice [1])?
**A.** Its value is 5.63 ± 0.99 µg/g.

**Q.** And the “Urinary test Bilirubin: count in category +” value (ICR mice [2])?
**A.** The value was 2.

**Q.** What about the “Urinary test Bilirubin: count in category −” value (ICR mice [2]) of the same compound?
**A.** Its value is 8.

**Q.** What about the “Urinary test Glucose: count in category +” value (ICR mice [2]) of the same compound?
**A.** Its value is 1.

**Q.** What about the “Urinary test Glucose: count in category −” value (ICR mice [2]) of the same compound?
**A.** Its value is 9.

**Q.** What about the “Urinary test Ketone: count in category −” value (ICR mice [2]) of the same compound?
**A.** Its value is 10.

**Q.** What about the “Urinary test Nitrite: count in category −” value (ICR mice [2]) of the same compound?
**A.** The value was 10.

**Q.** What about the “Urinary test Occult blood: count in category +” value (ICR mice [2]) of the same compound?
**A.** Its value is 2.

**Q.** What about the “Urinary test Occult blood: count in category −” value (ICR mice [2]) of the same compound?
**A.** Its value is 8.

**Q.** What about the “Urinary test Protein: count in category −” value (ICR mice [2]) of the same compound?
**A.** The value was 10.

**Q.** What about the “Urinary test Specific gravity: count in category −” value (ICR mice [2]) of the same compound?
**A.** The value was 10.

**Q.** And the “Urinary test Urobilinogen: count in category +” value (ICR mice [2])?
**A.** The value was 1.

**Q.** And the “Urinary test Urobilinogen: count in category −” value (ICR mice [2])?
**A.** Its value is 9.

**Q.** What about the “Urinary test pH: count in category −” value (ICR mice [2]) of the same compound?
**A.** The value was 10.

**Q.** And the “Growth inhibition rate (%)” value (U-937 cells [3]; 1 × 10^−7M, 4 days (96 hours))?
**A.** Its value is 42.0 ± 6.4%.

**Q.** And the inhibition at 1 µM (U-937 cells [3]; Homo sapiens, U-937, 96 h, 1 × 10^−6M, 4 days (96 hours), read-out: Growth inhibition rate (%))?
**A.** The inhibition at 1 µM was 52 ± 2.8%.

**Q.** What about the inhibition at 0.1 µM (U-937 cells [3]; Homo sapiens, U-937, 96 h, 1 × 10^−7M, 4 days (96 hours), read-out: Growth inhibition rate (%)) of the same compound?
**A.** Its inhibition at 0.1 µM is ~33%.

**Q.** What about the inhibition at 0.01 µM (U-937 cells [3]; Homo sapiens, U-937, 96 h, 1 × 10^−8M, 4 days (96 hours), read-out: Growth inhibition rate (%)) of the same compound?
**A.** The inhibition at 0.01 µM was 31 ± 7.8%.

**Q.** And the inhibition at 0.5 µM (U-937 cells [3]; Homo sapiens, U-937, 96 h, 5 × 10^−7M, 4 days (96 hours), read-out: Growth inhibition rate (%))?
**A.** The inhibition at 0.5 µM was 48 ± 7.1%.

**Q.** What about the inhibition at 0.05 µM (U-937 cells [3]; Homo sapiens, U-937, 96 h, 5 × 10^−8M, 4 days (96 hours), read-out: Growth inhibition rate (%)) of the same compound?
**A.** The inhibition at 0.05 µM was 35.5 ± 7.4%.

**Q.** What about the “growth inhibition rate (inhibitory effect)” value (U-937 cells [3]; after 96 hours, concentration of 10^−8˜10^−6M) of the same compound?
**A.** The value was 30-50%.

**Q.** And the “concentration at which decursin has toxicity on cancer cell lines” value [4]?
**A.** Its value is “more than 10 ppm”.

**Q.** What about the “Naphtol AS-D chloroacetate esterase Activity (%)” value (U-937 cells [5]) of the same compound?
**A.** Its value is 0.0%.
